{"source": "paper PMC4710668", "about": "“Bioactivation of food genotoxicants 5-hydroxymethylfurfural and furfuryl alcohol by sulfotransferases from human, mouse and rat: a comparative study” (Archives of Toxicology, 2014)", "experiment_in_all_cases": "FFA sulfoconjugation assay (N6-MF-A formation with adenosine as scavenger)", "format_in_all_cases": "biochemical", "key": {"[1]": {"target": "T1, hSULT1B1 (Homo sapiens, UniProt O43704)", "T1 construct": "made in house; host or cells: Salmonella typhimurium TA1538 (cytosolic fraction, not purified)", "T1 sequence (O43704 whole entry)": "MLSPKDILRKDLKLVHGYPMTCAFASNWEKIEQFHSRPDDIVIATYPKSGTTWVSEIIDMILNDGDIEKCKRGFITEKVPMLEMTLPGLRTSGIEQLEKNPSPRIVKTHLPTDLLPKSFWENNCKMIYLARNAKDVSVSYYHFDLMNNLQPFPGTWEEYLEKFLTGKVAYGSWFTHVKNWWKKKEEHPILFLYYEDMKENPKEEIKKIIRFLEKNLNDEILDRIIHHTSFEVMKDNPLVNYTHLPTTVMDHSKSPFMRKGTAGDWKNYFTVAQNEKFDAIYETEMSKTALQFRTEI", "in_short": "(§1)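 Enzyme source: cytosolic preparations of TA1538 bacteria expressing single SULT forms. FFA + 10 mM adenosine, 20 min, 37 °C; stopped with cold methanol. Readout: N6-MF-A by UPLC-MS/MS, three MRM transitions, labelled internal standard; SULT-free background subtracted. Quadruplicates.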"}, "[2]": {"target": "T2, rSult2b1 (Rattus norvegicus, UniProt Q29YR5)", "T2 construct": "made in house; host or cells: Salmonella typhimurium TA1538 (cytosolic fraction, enzyme not purified)", "T2 sequence (Q29YR5 1-340)": "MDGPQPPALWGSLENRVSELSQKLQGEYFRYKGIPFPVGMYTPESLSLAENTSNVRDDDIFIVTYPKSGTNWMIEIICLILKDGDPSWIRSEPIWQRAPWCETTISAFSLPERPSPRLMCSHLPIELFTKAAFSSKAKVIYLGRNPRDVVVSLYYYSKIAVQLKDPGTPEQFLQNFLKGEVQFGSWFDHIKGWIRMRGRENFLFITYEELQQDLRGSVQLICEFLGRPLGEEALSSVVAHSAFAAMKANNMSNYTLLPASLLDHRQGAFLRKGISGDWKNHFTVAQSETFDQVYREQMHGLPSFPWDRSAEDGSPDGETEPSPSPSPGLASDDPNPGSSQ", "in_short": "as §1"}, "[3]": {"target": "T3, hSULT2B1b (Homo sapiens, UniProt O00204)", "T3 construct": "made in house; host or cells: Salmonella typhimurium TA1538 (cytosolic fraction, not purified)", "T3 sequence (O00204 1-365)": "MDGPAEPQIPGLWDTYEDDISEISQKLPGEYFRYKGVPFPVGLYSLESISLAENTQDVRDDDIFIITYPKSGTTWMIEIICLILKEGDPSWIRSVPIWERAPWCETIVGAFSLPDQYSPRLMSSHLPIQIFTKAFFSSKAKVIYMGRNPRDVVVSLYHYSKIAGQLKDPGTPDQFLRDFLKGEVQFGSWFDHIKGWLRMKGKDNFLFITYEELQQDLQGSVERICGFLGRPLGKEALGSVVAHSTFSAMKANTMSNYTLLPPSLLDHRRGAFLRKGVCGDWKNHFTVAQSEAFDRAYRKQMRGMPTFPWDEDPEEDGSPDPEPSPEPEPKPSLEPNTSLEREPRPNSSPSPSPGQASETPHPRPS", "in_short": "as §1"}}}
{"compound": "OCc1ccco1", "note": "[FFA, furfuryl alcohol]", "values": [{"measurement": "Rate of N6-MF-A formation", "setting": "[1]; 0.1 mM FFA", "result": "23.3 ± 0.3", "unit": "fmol N ^6-MF-A/mg/min"}, {"measurement": "Rate of N6-MF-A formation", "setting": "[1]; 1 mM FFA", "result": "211 ± 2", "unit": "fmol N ^6-MF-A/mg/min"}, {"measurement": "Rate of N6-MF-A formation (corr.)", "setting": "[1]; 1 mM FFA, corrected by actual SULT concentration in the cytosolic preparation", "result": "5,010 ± 50 fmol N ^6-MF-A/mg/min"}, {"measurement": "Rate of N6-MF-A formation", "setting": "[1]; 10 mM FFA", "result": "1,070 ± 20 fmol N ^6-MF-A/mg/min"}, {"measurement": "Rate of N6-MF-A formation", "setting": "[2]; 0.1 mM FFA", "result": "<18", "unit": "fmol N ^6-MF-A/mg/min"}, {"measurement": "Rate of N6-MF-A formation", "setting": "[2]; 1 mM FFA", "result": "<20", "unit": "fmol N ^6-MF-A/mg/min"}, {"measurement": "Rate of N6-MF-A formation", "setting": "[2]; 10 mM FFA", "result": "<44", "unit": "fmol N ^6-MF-A/mg/min"}, {"measurement": "Rate of N6-MF-A formation", "setting": "[3]; 0.1 mM FFA", "result": "<18", "unit": "fmol N ^6-MF-A/mg/min"}, {"measurement": "Rate of N6-MF-A formation", "setting": "[3]; 1 mM FFA", "result": "<20", "unit": "fmol N ^6-MF-A/mg/min"}, {"measurement": "Rate of N6-MF-A formation", "setting": "[3]; 10 mM FFA", "result": "<44", "unit": "fmol N ^6-MF-A/mg/min"}]}
